Assay results as given in US9708311B2, “Benzimidazole derivatives as EP4 antagonists” (BAYER PHARMA AKTIENGESELLSCHAFT, priority 2012, dated 2017).

Target: human EP4 receptor (Homo sapiens (Human), UniProt P35408)
Assay: Test for antagonism of the human EP4 receptor signal (cAMP HTRF)
Format: cell-based
Details: cells expressing hEP4, PGE2 at EC80 (0.4 nM), cAMP TR-FRET; read-out: Antagonism hEP4 IC50
Summary of the method: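 Antagonism of PGE2-stimulated cAMP formation in hEP4-R cells with IBMX present. After lysis, cAMP measured by competitive TR-FRET (Eu cryptate anti-cAMP antibody vs cAMP-d2), 20 min at room temperature. Read-out is the 665/620 nm emission ratio; antagonism appears as restored FRET signal.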

Chain of human EP4 receptor (P35408 whole entry): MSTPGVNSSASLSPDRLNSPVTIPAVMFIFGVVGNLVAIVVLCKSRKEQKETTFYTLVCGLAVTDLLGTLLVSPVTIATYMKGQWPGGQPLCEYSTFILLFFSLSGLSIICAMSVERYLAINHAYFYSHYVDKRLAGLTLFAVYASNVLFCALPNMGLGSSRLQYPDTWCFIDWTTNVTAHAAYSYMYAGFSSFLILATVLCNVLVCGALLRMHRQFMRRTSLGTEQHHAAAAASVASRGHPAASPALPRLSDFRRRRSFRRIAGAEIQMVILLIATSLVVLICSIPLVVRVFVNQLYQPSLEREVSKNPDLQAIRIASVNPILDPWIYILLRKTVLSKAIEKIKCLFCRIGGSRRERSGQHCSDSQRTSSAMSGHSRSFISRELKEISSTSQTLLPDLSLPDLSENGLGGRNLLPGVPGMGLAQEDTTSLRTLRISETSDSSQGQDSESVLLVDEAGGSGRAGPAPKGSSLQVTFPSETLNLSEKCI

| IC50 | Compound |
| --- | --- |
| 0.0369 µM | CCn1c2ccccc2c2cc(-c3nc4cc(C(=O)NS(=O)(=O)Cc5c(C)cccc5Cl)ccc4n3CCOC)ccc21 [Example 67, N-[(2-Chloro-6-methylbenzyl)sulphonyl]-2-(9-ethyl-9H-carbazol-3-yl)-1-(2-methoxy-ethyl)-1H-benzimidazole-5-carboxamide] |
| 0.0683 µM | CCn1c2ccccc2c2cc(-c3nc4cc(C(=O)N5CCC5)ccc4n3CC3CC3)ccc21 [Example 80, Azetidin-1-yl[1-(cyclopropylmethyl)-2-(9-ethyl-9H-carbazol-3-yl)-1H-benzimidazol-5-yl]-methanone] |
| 0.0615 µM | CCn1c2ccccc2c2cc(-c3nc4cc(C(=O)NS(=O)(=O)c5ccc(Cl)cc5)ccc4n3CCOC)ccc21 [Example 49, N-[(4-Chlorophenyl)sulphonyl]-2-(9-ethyl-9H-carbazol-3-yl)-1-(2-methoxyethyl)-1H-benzimidazole-5-carboxamide] |
| 0.106 µM | CCn1c2ccccc2c2cc(-c3nc4cc(C(=O)NCCN5CCOCC5)ccc4n3CC3CC3)ccc21 [Example 79, 1-(Cyclopropylmethyl)-2-(9-ethyl-9H-carbazol-3-yl)-N-[2-(morpholin-4-yl)ethyl]-1H-benzimidazole-5-carboxamide] |
| 0.312 µM | C=CCn1c(-c2ccc3c(c2)c2ccccc2n3CC)nc2cc(C(=O)O)ccc21 [Example 2, 1-Allyl-2-(9-ethyl-9H-carbazol-3-yl)-1H-benzimidazole-5-carboxylic acid] |
| 0.122 µM | CCn1c2ccccc2c2cc(-c3nc4cc(C(=O)N5CCNC(=O)C5)ccc4n3CC3CC3)ccc21 [Example 28, 4-{[1-(Cyclopropylmethyl)-2-(9-ethyl-9H-carbazol-3-yl)-1H-benzimidazol-5-yl]carbonyl}-piperazin-2-one] |
| 0.0595 µM | CCn1c2ccccc2c2cc(-c3nc4cc(C(=O)O)c(F)cc4n3CCOC)ccc21 [Example 113, 2-(9-Ethyl-9H-carbazol-3-yl)-6-fluoro-1-(2-methoxyethyl)-1H-benzimidazole-5-carboxylic acid] |
| 0.174 µM | CCn1c2ccccc2c2cc(-c3nc4cc(C(=O)NS(=O)(=O)Cc5ccc(F)cc5)ccc4n3CCOC)ccc21 [Example 58, 2-(9-Ethyl-9H-carbazol-3-yl)-N-[(4-fluorobenzyl)sulphonyl]-1-(2-methoxyethyl)-1H-benzimidazole-5-carboxamide] |
| 0.0131 µM | COCCn1c(-c2ccc3c(c2)c2ccccc2n3CC2CC2)nc2cc(C(=O)O)ccc21 [Example 36, 2-[9-(Cyclopropylmethyl)-9H-carbazol-3-yl]-1-(2-methoxyethyl)-1H-benzimidazole-5-carboxylic acid] |
| 0.209 µM | CCn1c2ccccc2c2cc(-c3nc4cc(C(=O)NCCN5CCCC5)ccc4n3CCOC)ccc21 [Example 87, 2-(9-Ethyl-9H-carbazol-3-yl)-1-(2-methoxyethyl)-N-[2-(pyrrolidin-1-yl)ethyl]-1H-benzimidazole-5-carboxamide] |
| 0.134 µM | CCn1c2ccccc2c2cc(-c3nc4cc(C(N)=O)ccc4n3CCOC)ccc21 [Example 82, 2-(9-Ethyl-9H-carbazol-3-yl)-1-(2-methoxyethyl)-1H-benzimidazole-5-carboxamide] |
| 0.0394 µM | Cn1c2ccccc2c2cc(-c3nc4cc(C(=O)O)ccc4n3CC3CC3)ccc21 [Example 34, 1-(Cyclopropylmethyl)-2-(9-methyl-9H-carbazol-3-yl)-1H-benzimidazole-5-carboxylic acid] |
| 0.0186 µM | CCn1c2ccccc2c2cc(-c3nc4cc(C(=O)O)ccc4n3CC(O)C3CC3)ccc21 (centres unmarked) [Example 137, 1-(2-Cyclopropyl-2-hydroxyethyl)-2-(9-ethyl-9H-carbazol-3-yl)-1H-benzimidazole-5-carboxylic acid] |
| 0.158 µM | CCn1c2ccccc2c2cc(-c3nc4cc(C(=O)O)ccc4n3CCCOC)ccc21 [Example 100, 2-(9-Ethyl-9H-carbazol-3-yl)-1-(3-methoxypropyl)-1H-benzimidazole-5-carboxylic acid] |
| 3.78 µM | CCOC(=O)c1ccc2c(c1)nc(-c1ccc3c(c1)c1ccccc1n3CC)n2CCN1CCCC1 [Example 37, Ethyl 2-(9-ethyl-9H-carbazol-3-yl)-1-[2-(pyrrolidin-1-yl)ethyl]-1H-benzimidazole-5-carboxylate] |
| 0.944 µM | CCn1c2ccccc2c2cc(-c3nc4cc(S(=O)(=O)NC)ccc4n3C)ccc21 [Example 129, 2-(9-Ethyl-9H-carbazol-3-yl)-N,1-dimethyl-1H-benzimidazole-5-sulphonamide] |
| 1.86 µM | C=CCn1c(-c2ccc3c(c2)c2ccccc2n3CC)nc2cc(C(=O)N(C)C)ccc21 [Example 85, 1-Allyl-2-(9-ethyl-9H-carbazol-3-yl)-N,N-dimethyl-1H-benzimidazole-5-carboxamide] |
| 0.0995 µM | CCn1c2ccccc2c2cc(-c3nc4cc(C(=O)NS(=O)(=O)c5ccc(C)cc5)ccc4n3CCOC)ccc21 [Example 48, 2-(9-Ethyl-9H-carbazol-3-yl)-1-(2-methoxyethyl)-N-[(4-methylphenyl)sulphonyl]-1H-benzimidazole-5-carboxamide] |

| IC50 | Compound |
| --- | --- |
| 0.0872 µM | CCn1c2ccccc2c2cc(-c3nc4cc(C(=O)NS(=O)(=O)C5CC5)ccc4n3CCN(C)C)ccc21 [Example 74, N-(Cyclopropylsulphonyl)-1-[2-(dimethylamino)ethyl]-2-(9-ethyl-9H-carbazol-3-yl)-1H-benzimidazole-5-carboxamide] |
| 0.683 µM | CCn1c2ccccc2c2cc(-c3nc4cc(C(=O)NS(=O)(=O)CCc5ccc(C(F)(F)F)cc5)ccc4n3CCOC)ccc21 [Example 20, 2-(9-Ethyl-9H-carbazol-3-yl)-1-(2-methoxyethyl)-N-({2-[4-(trifluoromethyl)phenyl]ethyl}-sulphonyl)-1H-benzimidazole-5-carboxamide] |
| 0.252 µM | CCn1c2ccccc2c2cc(-c3nc4cc(C(=O)O)ccc4n3C[C@@H]3COCCO3)ccc21 [Example 139, 1-[(2R)-1,4-Dioxan-2-ylmethyl]-2-(9-ethyl-9H-carbazol-3-yl)-1H-benzimidazole-5-carboxylic acid] |
| 0.464 µM | CCOC(=O)c1ccc2c(c1)nc(-c1ccc3c(c1)c1ccccc1n3CC)n2CC1COC1 [Example 122, Ethyl 2-(9-ethyl-9H-carbazol-3-yl)-1-(oxetan-3-ylmethyl)-1H-benzimidazole-5-carboxylate] |
| 0.0825 µM | CCn1c2ccccc2c2cc(-c3nc4cc(C(=O)O)ccc4n3CCN(C)C)ccc21 [Example 72, 1-[2-(Dimethylamino)ethyl]-2-(9-ethyl-9H-carbazol-3-yl)-1H-benzimidazole-5-carboxylic acid] |
| 0.219 µM | CCn1c2ccccc2c2cc(-c3nc4cc(C(=O)N5CCOCC5)ccc4n3CC3CC3)ccc21 [Example 29, [1-(Cyclopropylmethyl)-2-(9-ethyl-9H-carbazol-3-yl)-1H-benzimidazol-5-yl](morpholin-4-yl)methanone] |
| 0.0657 µM | CCn1c2ccccc2c2cc(-c3nc4cc(C(=O)N5CCCC5)ccc4n3CC3CC3)ccc21 [Example 22, [1-(Cyclopropylmethyl)-2-(9-ethyl-9H-carbazol-3-yl)-1H-benzimidazol-5-yl](pyrrolidin-1-yl)methanone] |
| 0.0169 µM | CCn1c2ccccc2c2cc(-c3nc4cc(C(=O)NS(=O)(=O)CCOC)ccc4n3CCOC)ccc21 [Example 59, 2-(9-Ethyl-9H-carbazol-3-yl)-1-(2-methoxyethyl)-N-[(2-methoxyethyl)sulphonyl]-1H-benzimidazole-5-carboxamide] |
| 0.0161 µM | CCn1c2ccccc2c2cc(-c3nc4cc(C(=O)NS(=O)(=O)CC(C)(C)C)ccc4n3CCOC)ccc21 [Example 66, N-[(2,2-Dimethylpropyl)sulphonyl]-2-(9-ethyl-9H-carbazol-3-yl)-1-(2-methoxyethyl)-1H-benzimidazole-5-carboxamide] |
| 1.18 µM | CCn1c2ccccc2c2cc(-c3nc4cc(C(=O)O)c(C)cc4n3CC3CC3)ccc21 [Example 110, 1-(Cyclopropylmethyl)-2-(9-ethyl-9H-carbazol-3-yl)-6-methyl-1H-benzimidazole-5-carboxylic acid] |
| 0.0336 µM | CCn1c2ccccc2c2cc(-c3nc4cc(C(=O)NS(=O)(=O)c5ccccc5)ccc4n3CCOC)ccc21 [Example 50, 2-(9-Ethyl-9H-carbazol-3-yl)-1-(2-methoxyethyl)-N-(phenylsulphonyl)-1H-benzimidazole-5-carboxamide] |
| 0.0274 µM | CCn1c2ccc(OC)cc2c2cc(-c3nc4cc(C(=O)O)ccc4n3CCOC)ccc21 [Example 32, 2-(9-Ethyl-6-methoxy-9H-carbazol-3-yl)-1-(2-methoxyethyl)-1H-benzimidazole-5-carboxylic acid] |
| 0.0245 µM | CCn1c2ccccc2c2cc(-c3nc4cc(C(=O)O)ccc4n3CC3CCO3)ccc21 (centres unmarked) [Example 132, 2-(9-Ethyl-9H-carbazol-3-yl)-1-(oxetan-2-ylmethyl)-1H-benzimidazole-5-carboxylic acid] |
| 0.0286 µM | CCn1c2ccccc2c2cc(-c3nc4cc(C(=O)NS(=O)(=O)C5CC5)ccc4n3CCOC)ccc21 [Example 16, N-(Cyclopropylsulphonyl)-2-(9-ethyl-9H-carbazol-3-yl)-1-(2-methoxyethyl)-1H-benzimidazole-5-carboxamide] |
| 0.0301 µM | CCn1c2ccccc2c2cc(-c3nc4cc(C(=O)N5CCC5)ccc4n3CCOC)ccc21 [Example 30, Azetidin-1-yl[2-(9-ethyl-9H-carbazol-3-yl)-1-(2-methoxyethyl)-1H-benzimidazol-5-yl]methanone] |
| 2.46 µM | CCn1c2ccccc2c2cc(-c3nc4cc(C(=O)O)ccc4n3CCN3CCOCC3)ccc21 [Example 70, 2-(9-Ethyl-9H-carbazol-3-yl)-1-[2-(morpholin-4-yl)ethyl]-1H-benzimidazole-5-carboxylic acid] |
| 0.167 µM | CCn1c2ccccc2c2cc(-c3nc4cc(C(=O)NS(=O)(=O)CCc5ccccc5Cl)ccc4n3CCOC)ccc21 [Example 61, N-{[2-(2-Chlorophenyl)ethyl]sulphonyl}-2-(9-ethyl-9H-carbazol-3-yl)-1-(2-methoxyethyl)-1H-benzimidazole-5-carboxamide] |
